Test results taken from patent US20050266012A1 (priority 2004, published 2005).

What was measured:
latent EBV promoters = conditions: patients with EBV-associated tumors; cited from earlier work
solid tumors = conditions: phase II trials, variety of doses and schedules; cited from earlier work
AT-2-HIV-pulsed DCs [1] = assay: In vivo cytotoxic assay, HIV-specific cytolysis; conditions: AT-2-HIV-immunized BALB/c mice; 5 mg/kg daily intramuscular for 7 days; P<0.01
Procedure: (§1) Aldrithiol-2 (AT-2)-inactivated HIV (10^9/50 μl) (LU and ANDRIEU, J. Virol., vol. 75, p: 8949-56, 2001) or human chromogranin A (hCgA, a protein associated with neuro-endocrine tumours (DEGORCE et al., Br. J. Cancer., vol. 79, p: 65-71, 1999); 10 μg/50 μl) plus incomplete Freund's adjuvant (IFA) (50 μl) were injected subcutaneously into 4- to 6-week-old male BALB/c mice (Institute of Laboratory Animal Science, Beijing, China). Mice immunized with AT-2-inactivated HIV (n=12) or hCgA (n=12) were randomly divided into two subgroups. One subgroup (n=6) received daily intramuscular injection of 5-azacytidine (Sigma, St Louis, Mo.) at a dose of 5 mg/kg for 7 days and the other subgroup (n=6) received 0.9% sodium chloride as control. Animals were killed at day 7 for ex vivo analysis. In addition, non-immunized mice (n=6) injected with IFA alone were also killed on the same day to establish a background control.
(§2) This assay was performed as described previously (AICHELE et al., Immunity, vol. 6, p: 519-29, 1997). Briefly, target DCs were prepared from BALB/c bone marrow cell suspensions (LUTZ et al., above mentioned, 1999). […] In vivo HIV- or hCgA-specific cytolysis was assessed by calculating the ratio of non-pulsed DCs/pulsed DCs. […]

hCgA-pulsed DCs [2] = assay: Ex vivo cytotoxic assay, hCgA-specific cytolysis by splenocytes; format: in vivo; conditions: hCgA-immunized BALB/c mice; 5 mg/kg daily intramuscular for 7 days; P<0.01
Procedure: as §1, with “In addition, non-immunized mice (n=6) injected with IFA alone were also killed on the same day to establish a background control.” left out
(§3) Splenocytes were taken from 7-day-immunized mice and plated into Micro Tubes-Bulk (Bio-Rad, Hercules, Calif.) in the presence of CFSE (Molecular Probes, PoortGebouw, The Netherlands)-labelled AT-2-HIV- or hCgA-pulsed dendritic cells (DCs) at different E:T ratios for 4 h at 37° C. […] Target cytolysis was analyzed on a FACSCalibur (BD Immunocytometry System, San Jose, Calif.). Virus- or tumour-specific cytolytic activity was determined by calculating the percentage of CFSE/PI-staining DCs after subtraction of the non-specific CFSE/PI-staining of non-pulsed DCs. […]

AT-2-HIV-pulsed DCs [3] = assay: Ex vivo cytotoxic assay, HIV-specific cytolysis by splenocytes; format: in vivo; conditions: AT-2-HIV-immunized BALB/c mice; 5 mg/kg daily intramuscular for 7 days; P<0.01
Procedure: as §1, with “In addition, non-immunized mice (n=6) injected with IFA alone were also killed on the same day to establish a background control.” left out
as §3

[4] = system: relapsed or refractory acute myelogenous leukaemia (AML) and myolodysplastic syndrome (MDS); conditions: cited from earlier work
hCgA-pulsed DCs [5] = assay: In vivo cytotoxic assay, hCgA-specific cytolysis; conditions: hCgA-immunized BALB/c mice; 5 mg/kg daily intramuscular for 7 days; P<0.01
Procedure: as §1, §2

[6] = system: P16 transcription from a methylation-silenced promoter; conditions: prostate cancer cells that grow in nude mice; cited from earlier work

Row | Compound | CpG methylation of latent EBV promoters in tumor tissues (latent EBV promoters) | Clinical results of single agent in solid tumors (solid tumors) | Increase of in vivo HIV-specific cytolysis of AT-2-HIV-pulsed DCs vs untreated immunized animals (AT-2-HIV-pulsed DCs [1]) | Increase of ex vivo hCgA-specific cytolysis of hCgA-pulsed DCs by splenocytes vs untreated immunized animals (hCgA-pulsed DCs [2]) | Increase of ex vivo HIV-specific cytolysis of AT-2-HIV-pulsed DCs by splenocytes vs untreated immunized animals (AT-2-HIV-pulsed DCs [3]) | Clinical activity as single agent [4] | Increase of in vivo hCgA-specific cytolysis of hCgA-pulsed DCs vs untreated immunized animals (hCgA-pulsed DCs [5]) | P16 transcription from a methylation-silenced promoter [6]
1 | Nc1ncn([C@@H]2O[C@H](CO)[C@@H](O)[C@H]2O)c(=O)n1 [5-Azacytidine] | reversed the dense CpG methylation | uniformly disappointing | > 3 fold | > 2 fold | > 2 fold | limited activity | > 3 fold | –
2 | CCN(CC)CCNC(=O)c1ccc(N)cc1 [procanaimide] | – | – | – | – | – | – | – | reactivate the P16 transcription
